The test system of series [1] is A2780 ovarian carcinoma cells. Nature of the series: Antiproliferative activity on A2780 cells (MTT). The conditions noted are these: Homo sapiens, 96 h, four days of incubation, read-out: Cellular activity pIC50 C.2 (converted). It is filed as cell-based. How it is done: Cellular activity of the compounds of formula (I) was determined on A2780 tumour cells using a colorimetric assay for cell toxicity or survival (Mosmann Tim, Journal of Immunological Methods 65: 55-63, 1983)(see example C.2).
All compounds tested were dissolved in DMSO and further dilutions were made in culture medium. Final DMSO concentrations never exceeded 0.1% (v/v) in cell proliferation assays. Controls contained A2780 cells and DMSO without compound and blanks contained DMSO but no cells. MTT was dissolved at 5 mg/ml in PBS. A glycine buffer comprised of 0.1 M glycine and 0.1 M NaCl buffered to pH 10.5 with NaOH (1 N) was prepared (all reagents were from Merck).
The human A2780 ovarian carcinoma cells (a kind gift from Dr. T. C. Hamilton [Fox Chase Cancer Centre, Pennsylvania, USA]) were cultured in RPMI 1640 medium supplemented with 2 mM L-glutamine, 50 μg/ml gentamicin and 10% fetal calf serum. Cells were routinely kept as monolayer cultures at 37° C. in a humidified 5% CO2 atmosphere. Cells were passaged once a week using a trypsin/EDTA solution at a split ratio of 1:40. All media and supplements were obtained from Life Technologies. Cells were free of mycoplasma contamination as determined using the Gen-Probe Mycoplasma Tissue Culture kit (supplier: BioMérieux).
Cells were seeded in NUNC™ 96-well culture plates (Supplier: Life Technologies) and allowed to adhere to the plastic overnight. Densities used for plating were 1500 cells per well in a total volume of 200 μl medium. After cell adhesion to the plates, medium was changed and drugs and/or solvents were added to a final volume of 200 μl. Following four days of incubation, medium was replaced by 200 μl fresh medium and cell density and viability was assessed using an MTT-based assay. To each well, 25 μl MTT solution was added and the cells were further incubated for 2 hours at 37° C. The medium was then carefully aspirated and the blue MTT-formazan product was solubilized by addition of 25 μl glycine buffer followed by 100 μl of DMSO. […] Within an experiment, the results for each experimental condition are the mean of 3 replicate wells. For initial screening purposes, compounds were tested at a single fixed concentration of 10^−6 M. For active compounds, the experiments were repeated to establish full concentration-response curves. For each experiment, controls (containing no drug) and a blank incubation (containing no cells or drugs) were run in parallel. The blank value was subtracted from all control and sample values. For each sample, the mean value for cell growth (in absorbance units) was expressed as a percentage of the mean value for cell growth of the control. […] Herein the effects of test compounds are expressed as pIC50 (the negative log value of the IC50-value)(see Table F-2).

Series [2] has as its target histone deacetylase (HeLa nuclear extracts). Put plainly: In vitro assay for inhibition of histone deacetylase with fluorescent-labelled substrate (Fluor de Lys). It is filed as biochemical. From the text: The in vitro assay for inhibition of histone deacetylase (see example C.1) measures the inhibition of HDAC enzymatic activity obtained with the compounds of formula (I).
The HDAC Fluorescent Activity Assay/Drug Discovery Kit of Biomol (cat. No: AK-500-0001) was used. The HDAC Fluorescent Activity Assay is based on the Fluor de Lys (Fluorogenic Histone deAcetylase Lysyl) substrate and developer combination. The Fluor de Lys substrate, comprises an acetylated lysine side chain. Deacetylation of the substrate sensitizes the substrate so that, in the second step, treatment with the Fluor de Lys developer produces a fluorophore.
HeLa nuclear extracts (supplier: Biomol) were incubated at 60 μg/ml with 75 μM of substrate. The Fluor de Lys substrate was added in a buffer containing 25 mM Tris, 137 mM NaCl, 2.7 mM KCl and 1 mM MgCl2.6H2O at pH 7.4. After 30 min, 1 volume of the developer was added. The fluorophore was excited with 355 nm light and the emitted light (450 nm) was be detected on a fluorometric plate reader.
For each experiment, controls (containing HeLa nuclear extract and buffer), a blank incubation (containing buffer but no HeLa nuclear extract) and samples (containing compound dissolved in DMSO and further diluted in buffer and HeLa nuclear extract) were run in parallel. In first instance, compounds were tested at a concentration of 10^−5M. […] All sample were tested 4 times. In each test the blank value was subtracted from both the control and the sample values. The control sample represented 100% of substrate deactylation. For each sample the fluorescence was expressed as a percentage of the mean value of the controls. […] Herein the effects of test compounds are expressed as pIC50 (the negative log value of the IC50-value) (see Table F-2).

Series [3] concerns p21 promoter. Nature of the series: p21 induction in vivo method C.6.c (reporter tumour fluorescence in nude mice). The following applies: 20-40 mpk daily during 6 days, orally or intraveinally, ranked inactive, weaker, identical or better than R306465. How it is done:
The last method is an in vivo method wherein mice are used for screening the pharmaceutical activity of a compound. The above described stably transformed tumour cells can be administered to mice in an amount sufficient to effect production of a tumour. After the tumour cells had sufficient time to form a tumour, a potentially active compound can be administered to the animals and the effect of said compound on the tumour cells is evaluated by measuring the expression of the reporter gene. Incubation with pharmaceutical active compounds will result in an increase of reporter gene expression compared to the control levels (see example C.6.c.)
A selected clone was injected subcutaneous (10^7 cells/200 μl) into the flank of nude mice and a calliper measurable tumour was obtained after 12 days. From day 12 on, animals were dosed, orally or intraveinally, daily during 6 days with solvent and 20-40 mpk compound (4-10 animals each). Tumours were evaluated for fluorescence by the in-house developed Automated Whole Body Imaging System (Fluorescent stereomicroscope type Olympus® SZX12 equipped with a GFP filter and coupled to a CCD camera type JAI® CV-M90 controlled by a software package based on the IMAQ Vision Software from National Instruments®). As reference, compound R306465 (WO03/76422) was used.

Test in series [4]: not given
This is another data set of the same source.

Series [5] is described as follows: Solubility at pH 2.3 (chemiluminescent nitrogen detector). It is filed as physicochemical. The conditions noted are these: pH 2.3, aqueous buffer; read-out: Solubility C.3.c. pH = 2.3. From the text: In a third method the solubility of a compound at different pH's can be measured with the use of a Chemiluminescent Nitrogen Detector (see example C.3.c).
The solubility of a compound, at pH 2.3, can also be measured with the use of a chemiluminescent nitrogen detector (see Table F-2).

Series [6] can be described thus: Kinetic solubility in aqueous media C.3.a (nephelometer). Type of series: physicochemical. The conditions noted are these: aqueous buffer, kinetic from dmso stock; phosphate citrate buffer pH 7.4, turbidity; read-out: Kinetic solubility score (C.3.a). The protocol:
The solubility of a compound measures the ability of a compound to stay in solution. In a first method the ability of a compound to stay in aqueous solution upon dilution (see example C.3.a) is measured. DMSO-stock solutions are diluted with a single aqueous buffer solvent in 3 consecutive steps. For every dilution turbidity is measured with a nephelometer.
In the first dilution step, 10 μl of a concentrated stock-solution of the active compound, solubilized in DMSO (5 mM), was added to 100 μl phosphate citrate buffer pH 7.4 and mixed. In the second dilution step, an aliquot (20 μl) of the first dilution step was further dispensed in 100 μl phosphate citrate buffer pH 7.4 and mixed. Finally, in the third dilution step, a sample (20 μl) of the second dilution step was further diluted in 100 μl phosphate citrate buffer pH 7.4 and mixed. All dilutions were performed in 96-well plates. Immediately after the last dilution step the turbidity of the three consecutive dilution steps were measured with a nephelometer. Dilution was done in triplicate for each compound to exclude occasional errors. Based on the turbidity measurements a ranking is performed into 3 classes. Compounds with high solubility obtained a score of 3 and for this compounds the first dilution is clear. Compounds with medium solubility obtained a score of 2. […]

The nature of series [7]: Metabolic stability with rat hepatocytes cell culture C.5.b. It is filed as in vitro ADME. The conditions noted are these: male, Sprague Dowley, rat hepatocyte cell cultures, read-out: in vitro half-life. From the text: Metabolism of drugs means that a lipid-soluble xenobiotic or endobiotic compound is enzymatically transformed into (a) polar, water-soluble, and excretable metabolite(s). The major organ for drug metabolism is the liver. […] However, some metabolites may have enhanced activity or toxic effects. Thus drug metabolism may include both “detoxication” and “toxication” processes. One of the major enzyme systems that determine the organism's capability of dealing with drugs and chemicals is represented by the cytochrome P450 monooxygenases, which are NADPH dependent enzymes. Metabolic stability of compounds can be determined in vitro with the use of subcellular human tissue (see example C.5.a.). Here metabolic stability of the compounds is expressed as % of drug metabolised after 15 minutes incubation of these compounds with microsomes. Quantitation of the compounds was determined by LC-MS analysis. Metabolic stability of compounds can also be determined by calculating the half live of compounds in rat hepatocyte cells (see example C.5.b.).
Rat hepatocytes were isolated from male Sprague Dowley rats. The compounds were dissolved to a 5 mM stock solution in 100% DMSO and incubated at a final concentration of 5 μM for 0, 15, 30, 60 and 120 min with rat hepatocyte cell cultures (0.5 million viable cells/0.5 ml) using 24-well plates.
Samples were prepared for LC-MS by addition of two volumes of DMSO. The samples were thoroughly shaken and subsequently centrifuged at 900 g for 10 min (room temperature). All experiments were performed in triplicate. Of the resulting supernatant 50 μl was analysed by LC-MS.
For LC-MS, elution of samples was performed on a Hypersil BDS C18 column (50×4.6 mm, 5 μm, Thermohypersil, UK). […]
Total injection volume of samples was 50 μL. […] The mass spectrometer was operated in positive ion mode in SIM adjusted to the mass of M+H with a scan width of 1 Da for quantification purposes. […] The metabolic stability of compounds in rat hepatocytes was expressed as in vitro half-lives. […]

In brackets after ≈: the same amount, converted by molar mass. Where two headings read alike, the source gives them in different places.

In general, melting point refers to the temperature of the solid-liquid transition. A word on the solubility: it is the dissolved amount per volume that the medium holds. Usually kinetic solubility stands for the concentration staying in solution when a stock, usually in DMSO, is diluted into the medium. What is called half-life is the time needed for the level to fall by half in the phase considered.

Consider `COc1cc(N)c(Cl)cc1C(=O)NC1CCN(CCCOc2ccc(F)cc2)CC1OC` (centres unmarked) [Cisapride], for which the “% metabolism” value (human, 15 min, 5 μM) came to 45%.
For `Cn1nc(CNCC2CCN(c3ncc(C(=O)NO)cn3)CC2)c2ccccc21` [Compound 1], the IC50 in series [1] is 20 nM. In addition, the “Enzymatic activity pIC50 C.1” value in series [2] is reported as 8.4. The “tumour fluorescence ranked against R306465” value in series [3] was “better than R306465”. In series [4], this compound displayed a melting point of 197 °C. Also, the solubility in series [5] amounted to 2500 µg/mL (≈ 6.32 mM).
In the case of `Cn1nnc2ccc(CNCC3CCN(c4ncc(C(=O)NO)cn4)CC3)cc21` [Compound 2], the IC50 in series [1] is 251 nM. Besides, the “Enzymatic activity pIC50 C.1” value in series [2] worked out at 8.1. Further, in series [6], the kinetic solubility was more than 455 µM. Further, in series [4], the melting point was 206 °C. Moreover, the solubility in series [5] came to 2100 µg/mL (≈ 5.3 mM).
With `O=C(NO)c1cnc(N2CCC(CNCc3n[nH]c4ccccc34)CC2)nc1` [Compound 22], the IC50 in series [1] is 79.4 nM. In addition, in series [2], the “Enzymatic activity pIC50 C.1” value is 9.4. In addition, in series [7], the half-life at 5 μM fell in the range of 30 to 55 min. In series [5], the solubility turned out to be 2200 µg/mL (≈ 5.77 mM).
Turning to `O=C(NO)c1cnc(N2CCN(S(=O)(=O)c3ccc4ccccc4c3)CC2)nc1` [Compound R306465, reference compound], the half-life at 5 μM in series [7] is 8 min.
Consider `CCCO` [propanol], for which the “% metabolism” value (15 min incubation with microsomes, compound 5 μM) is reported as 25%.

For the origin of these results see patent US7834011B2, “Heterocyclylalkyl derivatives as novel inhibitors of histone deacetylase” (Janssen Pharmaceutica N.V., priority 2006, dated 2010).
